Results published in patent publication US7645756B2, “Nitrogenous fused heteroaromatic ring derivative” (Banyu Pharmaceutical Co. Ltd., priority 2004, dated 2010).

Biological target: T1, human histamine-3 receptor (Homo sapiens, UniProt Q9Y5N1)
T1 construct: expressed in transfected cells; host or cells: HEK293 and CHO-K1 (membrane preparation)
Test: Histamine analogue-binding inhibition test ([35S]GTPγS binding, SPA)
Type: biochemical
Settings: for IC50: 50% inhibitory concentration to the specific [35S]GTPγS binding, membrane specimen of histamine-3 receptor expressing cells (HEK293, CHO-K1), 20 nM R-methylhistamine, 25° C., 3 hours; for inhibition of the binding of N-alpha-methylhistamine (histamine analogue) to histamine-H3 receptor: summary in words of the table's results
Text: A cDNA sequence coding for a human histamine-3 receptor [see International Laid-Open WO00/39164) was cloned with expression vectors pCR2.1, pEF1x (by Invitrogen) and pCI-neo (by Promega). The resulting expression vector was transfected into host cells, HEK293 and CHO-K1 (American Type Culture Collection), according to a cationic lipid process [see Proceedings of the National Academy of Sciences of the United States of America, Vol., 84, p. 7413 (1987)] to obtain histamine-3 receptor expression cells.
A membrane specimen prepared from the cells having expressed a histamine-3 receptor was incubated in an assay buffer (50 mM Tris buffer, 100 mM NaCl, 5 mM MgCl2, pH 7.4) along with a test compound, 20 nM R-methylhistamine (histamine analogue, by Sigma), 10?M GDP (guanine nucleotide diphosphate, by Sigma), 200 pM [^35S]GTPγS (guanine nucleotide triphosphate analogue, by Amersham) and SPA resin (W heat germ agglutinin SPA beads, by Amersham) therein, on a 96-well optiplate (by Packard) at 25° C. for 3 hours, then centrifuged at 3,000 rpm, and the activity was determined with Topcount (by Packard). The non-specific binding was determined in the presence of 10 μM GTPγS (by Sigma), and the 50% inhibitory concentration (IC50) of the test compound to the specific [^35S]GTPγS binding was calculated [see British Journal of Pharmacology, Vol. 135, p. 383 (2002)].

T1 sequence (Q9Y5N1 whole entry): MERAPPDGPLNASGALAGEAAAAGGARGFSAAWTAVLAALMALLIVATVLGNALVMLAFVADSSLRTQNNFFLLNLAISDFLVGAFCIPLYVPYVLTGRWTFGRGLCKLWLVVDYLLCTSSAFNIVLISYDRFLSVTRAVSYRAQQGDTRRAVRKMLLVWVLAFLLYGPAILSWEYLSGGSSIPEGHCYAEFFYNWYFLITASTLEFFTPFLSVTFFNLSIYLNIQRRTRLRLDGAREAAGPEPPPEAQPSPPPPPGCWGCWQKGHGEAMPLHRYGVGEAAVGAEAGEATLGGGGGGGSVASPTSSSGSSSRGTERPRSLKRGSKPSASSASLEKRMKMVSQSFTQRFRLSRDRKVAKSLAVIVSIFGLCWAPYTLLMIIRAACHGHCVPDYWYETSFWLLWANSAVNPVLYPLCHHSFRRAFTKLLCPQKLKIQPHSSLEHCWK

Compound | IC50 [nM] | inhibition of the binding of N-alpha-methylhistamine (histamine analogue) to histamine-H3 receptor
2-[4-(3-piperidin-1-ylpropoxy)-phenyl]-3aH-pyrazolo[1,5-d][1,2,4]triazine [Example 1] | 6.8 | strongly inhibited
c1cc(-c2ccc3nncn3n2)ccc1OCCCN1CCCCC1 [Example 10, 6-[4-(3-piperidin-1-ylpropoxy)phenyl]-[1,2,4]triazolo[4,3-b]pyridazine] | 1.8 | strongly inhibited

The next lines start with the values.

IC50 [nM] | inhibition of the binding of N-alpha-methylhistamine (histamine analogue) to histamine-H3 receptor | Compound
10 | strongly inhibited | 3-Phenyl-6-[6-(3-piperidin-1-ylpropyl)-pyridin-3-ylmethoxy]-[1,2,4]triazolo[3,4-a]phthalazine [Example 24]
1.4 | strongly inhibited | Cc1nn2cnnc2cc1-c1ccc(OCCCN2CCCCC2)cc1 [Example 19, 6-Methyl-7-[4-(3-Piperidin-1-ylpropoxy)-phenyl]-[1,2,4]triazolo[4,3-b]pyridazine]
0.1 | strongly inhibited | Cc1nnc2c3cccnc3c(-c3ccc(OCCCN4CCCCC4)cc3)nn12 [Example 30, 3-Methyl-6-[4-(3-piperidin-1-ylpropoxy)-phenyl]-pyrido[3,2-d][1,2,4]triazolo[4,3-b]pyridazine]
0.23 | strongly inhibited | c1cc2c(-c3ccc(OCCCN4CCCCC4)cc3)nn3cnnc3c2cn1 [Example 69]
